Here are results for 23 compounds from ChEMBL document CHEMBL3994671, “Similarity- and Substructure-Based Development of β2-Adrenergic Receptor Ligands Based on Unusual Scaffolds” (ACS Med Chem Lett, 2017).

Activity calls are given as the source filed them. The rule behind the calls is not given here. Bounds are passed on as bounds.

The term Ki denotes a measure of affinity in units of concentration, obtained from inhibition or displacement. The low end stands for a stronger hold on the target, the high end for a looser hold on the target. The term inhibition denotes the share of the control response that was lost under treatment.

For experiment [1], the target named is T1, Beta-1 adrenergic receptor (Homo sapiens, UniProt P08588). The experiment is described as follows: Displacement of [3H](-)CGP12177 from human beta1-AR expressed in CHOK1 cells after 2 hrs by TopCount microscintillation counting method. It counts as cell-based.
Target sequence in this assay (P08588 whole entry): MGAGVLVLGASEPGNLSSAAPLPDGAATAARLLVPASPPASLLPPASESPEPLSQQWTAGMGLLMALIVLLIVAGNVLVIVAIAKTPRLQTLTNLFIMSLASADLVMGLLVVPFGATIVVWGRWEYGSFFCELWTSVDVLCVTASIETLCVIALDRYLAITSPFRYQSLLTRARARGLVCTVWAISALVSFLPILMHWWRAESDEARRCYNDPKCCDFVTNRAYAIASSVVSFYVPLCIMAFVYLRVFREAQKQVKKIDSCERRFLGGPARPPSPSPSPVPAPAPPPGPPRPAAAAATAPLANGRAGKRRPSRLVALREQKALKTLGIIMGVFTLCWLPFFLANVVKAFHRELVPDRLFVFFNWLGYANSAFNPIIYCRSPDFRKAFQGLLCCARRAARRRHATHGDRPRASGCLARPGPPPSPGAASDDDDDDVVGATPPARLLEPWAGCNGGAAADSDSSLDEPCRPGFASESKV
The species entered for experiment [2] is Homo sapiens. The experiment is described as follows: Selectivity ratio of Kd for human beta1-AR expressed in CHOK1 cells to Kd for human beta2-AR expressed in CHOK1 cells. It counts as cell-based.
Experiment [3] has as its target T2, Beta-2 adrenergic receptor (Homo sapiens, UniProt P07550). The experiment is described as follows: Displacement of [3H](-)CGP12177 from human beta2-AR expressed in CHOK1 cells after 2 hrs by TopCount microscintillation counting method. It counts as cell-based. (In a radioligand displacement assay an active substance lowers the binding of a labelled ligand.)
For experiment [4], the target named is T2, Beta-2 adrenergic receptor. The experiment is described as follows: Displacement of [3H]DHA from beta2-AR (unknown origin) expressed in baculovirus infected sf9 cell membranes after 1 hr by scintillation counting method.
Target sequence in this assay (P07550 whole entry): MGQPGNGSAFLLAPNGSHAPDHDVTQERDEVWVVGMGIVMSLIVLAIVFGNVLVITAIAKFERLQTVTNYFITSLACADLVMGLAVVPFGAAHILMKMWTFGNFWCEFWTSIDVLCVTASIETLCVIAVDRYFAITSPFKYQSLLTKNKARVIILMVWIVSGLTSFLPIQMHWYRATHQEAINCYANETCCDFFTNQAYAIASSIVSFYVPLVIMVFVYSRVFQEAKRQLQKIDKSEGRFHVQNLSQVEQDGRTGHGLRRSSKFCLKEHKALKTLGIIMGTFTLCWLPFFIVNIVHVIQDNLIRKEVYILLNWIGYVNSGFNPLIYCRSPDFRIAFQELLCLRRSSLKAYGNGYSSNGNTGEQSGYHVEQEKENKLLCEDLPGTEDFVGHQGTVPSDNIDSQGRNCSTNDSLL
For experiment [5], the target named is T1, Beta-1 adrenergic receptor. In words: Antagonist activity at human beta1-AR expressed in CHOK1 cells assessed as inhibition of cimaterol-induced CRE-SPAP production at 20 uM after 5 hrs. It counts as functional, cell-based.
Target sequence in this assay (P08588 whole entry, looked up): as the sequence (P08588 whole entry) above
Experiment [6] addresses T2, Beta-2 adrenergic receptor. In words: Antagonist activity at human beta2-AR expressed in CHOK1 cells assessed as inhibition of cimaterol-induced CRE-SPAP production at 2 uM after 5 hrs. It counts as functional, cell-based.
Target sequence in this assay (P07550 whole entry, looked up): as the sequence (P07550 whole entry) above
Experiment [7] deals with T1, Beta-1 adrenergic receptor. In words: Antagonist activity at human beta1-AR expressed in CHOK1 cells assessed as inhibition of cimaterol-induced CRE-SPAP production at 2 uM after 5 hrs. It counts as functional, cell-based.
Target sequence in this assay (P08588 whole entry, looked up): as the sequence (P08588 whole entry) above
For experiment [8], the target named is T2, Beta-2 adrenergic receptor. The experiment is described as follows: Antagonist activity at human beta2-AR expressed in CHOK1 cells assessed as inhibition of cimaterol-induced CRE-SPAP production at 20 uM after 5 hrs. It counts as functional, cell-based.
Target sequence in this assay (P07550 whole entry, looked up): as the sequence (P07550 whole entry) above
For experiment [9], the target named is T2, Beta-2 adrenergic receptor. The experiment is described as follows: Antagonist activity at human beta2-AR expressed in CHOK1 cells assessed as inhibition of cimaterol-induced CRE-SPAP production at 100 uM after 5 hrs. It counts as functional, cell-based.
Target sequence in this assay (P07550 whole entry, looked up): as the sequence (P07550 whole entry) above
For experiment [10], the target named is T1, Beta-1 adrenergic receptor. The experiment is described as follows: Antagonist activity at human beta1-AR expressed in CHOK1 cells assessed as inhibition of cimaterol-induced CRE-SPAP production at 100 uM after 5 hrs. It counts as functional, cell-based.
Target sequence in this assay (P08588 whole entry, looked up): as the sequence (P08588 whole entry) above
For experiment [11], the target named is T1, Beta-1 adrenergic receptor. The experiment is described as follows: Displacement of [3H](-)CGP12177 from human beta1-AR expressed in CHOK1 cells at 20 to 100 uM after 2 hrs by TopCount microscintillation counting method relative to control. It counts as cell-based.
Target sequence in this assay (P08588 whole entry, looked up): as the sequence (P08588 whole entry) above
Experiment [12] addresses T1, Beta-1 adrenergic receptor. The experiment is described as follows: Partial agonist activity at human beta1-AR expressed in CHOK1 cells assessed as CRE-SPAP production after 5 hrs. It counts as functional, cell-based.
Target sequence in this assay (P08588 whole entry, looked up): as the sequence (P08588 whole entry) above
In experiment [13] the target is T1, Beta-1 adrenergic receptor. The experiment is described as follows: Partial agonist activity at human beta1-AR expressed in CHOK1 cells assessed as CRE-SPAP production after 5 hrs in presence of beta1-AR antagonist CGP20712A. It counts as functional, cell-based.
Target sequence in this assay (P08588 whole entry, looked up): as the sequence (P08588 whole entry) above
The target in experiment [14] is T1, Beta-1 adrenergic receptor. The experiment is described as follows: Partial agonist activity at human beta1-AR expressed in CHOK1 cells assessed as inhibition of cimaterol-induced CRE-SPAP production after 5 hrs. It counts as functional, cell-based.
Experiment [15] addresses T2, Beta-2 adrenergic receptor. In words: Partial agonist activity at human beta2-AR expressed in CHOK1 cells assessed as inhibition of cimaterol-induced CRE-SPAP production after 5 hrs. It counts as functional, cell-based.
Target sequence in this assay (P07550 whole entry): as the sequence (P07550 whole entry) above
For experiment [16], the target named is T1, Beta-1 adrenergic receptor. The experiment is described as follows: Neutral antagonist activity at human beta1-AR expressed in CHOK1 cells assessed as inhibition of cimaterol-induced CRE-SPAP production at 100 uM after 5 hrs. It counts as functional, cell-based.
The target in experiment [17] is T2, Beta-2 adrenergic receptor. The experiment is described as follows: Neutral antagonist activity at human beta2-AR expressed in CHOK1 cells assessed as inhibition of cimaterol-induced CRE-SPAP production at 100 uM after 5 hrs. It counts as functional, cell-based.
Target sequence in this assay (P07550 whole entry, looked up): as the sequence (P07550 whole entry) above

With `COc1cccc(/C=C2\Oc3c(CN(C)C)c(O)cc(C)c3C2=O)c1`, the results for the Kd in [1] and in [3] (read-out: pKd (converted)) were 44.7 µM and 21.9 µM, respectively. For the same compound, the Selectivity ratio in experiment [2] amounted to 2.

In the case of `COc1cccc(/C=C2\Oc3c(CN4CCN(C)CC4)c(O)cc(C)c3C2=O)c1`, the Kd in experiment [1] was 26.3 µM; in experiment [3] (read-out: pKd (converted)), 17.4 µM. Also, in experiment [2], the Selectivity ratio is 1.5.

Take `Cc1cc(O)c(CN2CCCC2)c2c1C(=O)/C(=C/c1cc3ccccc3o1)O2`: the Selectivity ratio in experiment [2] was 2.6.

Regarding `CC(O)CNCCOc1ccccc1-c1ccccc1` (centres undefined), the Ki in [4] was 0.009 to 3.2 µM.

Consider `CN(C)CCOc1ccc2ccccc2c1C=O`, for which, in [2], the Selectivity ratio stood at 4.2. Besides, the Kd in [3] (read-out: pKd (converted)) was 23.4 µM.

Regarding `CCOC(=O)c1cc(/C=C/c2sc3ccccc3[n+]2C)c2sc3ccccc3n12`, the Kd is 3.09 µM in [1] and 0.891 µM in experiment [3] (read-out: pKd (converted)). The inhibition result in experiment [5], in [6] and in experiment [8] was “Active” throughout. In addition, in experiment [2], the Selectivity ratio was 3.5. The inhibition result in experiment [7] is “inactive”.

Take `C[n+]1c(/C=C/c2ccccc2Cl)sc2ccccc21`: the figures for the Kd in [1] and in experiment [3] (read-out: pKd (converted)) were 13.8 µM and 4.9 µM, respectively. For the same compound, in [2], the Selectivity ratio came out at 2.8.

In the case of `COc1ccc(C(=O)C[n+]2c(C)n(C(F)F)c3ccccc32)cc1`, the inhibition entry in experiment [9] and in experiment [10] was “inactive” in each case. Also, the inhibition result in experiment [3] is “Active”.

In experiment [4], `CCOC(=O)C1Oc2cccc(OCC(O)CNC(C)C)c2C1C` (centres undefined) showed a Ki of 0.009 to 3.2 µM.

In experiment [11], `CCCCN(C)Cc1c(O)cc(C)c2c1O/C(=C\c1cc3cc(Br)ccc3o1)C2=O` yielded an inhibition of under 50%.

For `C[n+]1c(C2=C(N)N(c3ccccc3)CC2=O)sc2ccccc21`, the inhibition entry in experiment [3] was “inactive”.

Compound `CCN1C(=Cc2sc3ccccc3[n+]2C)C=Cc2cccc(C)c21` showed a Ki in experiment [4] of 0.009 to 3.2 µM.

Take `CC(C)(C)NC[C@@H](O)COc1ccccc1-c1ccccc1`: the Kd is 0.000977 µM in experiment [1], 0.0182 nM in experiment [15] and 3.55e-05 µM in experiment [3] (read-out: pKd (converted)). For the same compound, the Selectivity ratio in [2] was determined as 27.5. The result in experiment [12] was Active. Further, in experiment [13], the result was inactive. In addition, the inhibition entry in experiment [14] was “Active”.

In the case of `Cc1cc(O)c(CN(C)C)c2c1C(=O)/C(=C/c1ccccc1)O2`, the Selectivity ratio in experiment [2] was found to be 1.9.

Consider `COc1cccc(/C=C2\Oc3c(CN4CCCC4)c(O)cc(C)c3C2=O)c1`, for which the Kd in experiment [1] is 35.5 µM; in experiment [3] (read-out: pKd (converted)) it was 5.5 µM. In addition, the Selectivity ratio in [2] worked out at 6.5. For the same compound, the inhibition result in experiment [9] and in experiment [10] was “Active” throughout.

In experiment [4], `CCNCCOc1ccccc1-c1ccccc1` came in with an inhibitory constant (Ki) of 0.009 to 3.2 µM.

For `CN(C)CCOCCOc1ccccc1-c1ccccc1`, the Kd in [1] is 45.7 µM; in experiment [3] (read-out: pKd (converted)) it was 3.8 µM. For the same compound, the Selectivity ratio in [2] was 12. Also, the inhibition result in experiment [16] and in experiment [17] was “Active” in each case.

`Cc1n(-c2ccccc2)c2ccc(Cl)cc2[n+]1CCO`: the inhibition entry in [9] and in [10] was “inactive” throughout. Also, the inhibition result in [3] was “Active”.

Take `Cc1cc(O)c(CN2CCCC2)c2c1C(=O)/C(=C\c1ccco1)O2`: the Ki in experiment [4] was 0.009 to 3.2 µM.

`COCCNCCOc1ccccc1-c1ccccc1`: the Ki in experiment [4] lay within 0.009 to 3.2 µM.

`C[n+]1c(/C=C/Nc2ccccc2)sc2ccccc21`: in experiment [2], the Selectivity ratio stood at 6.6. For the same compound, the Kd in experiment [3] (read-out: pKd (converted)) was 38.9 µM.

On to `C=CCNCCOc1ccccc1-c1ccccc1`, for which the Kd is 27.5 µM in experiment [1] and 2.63 µM in experiment [3] (read-out: pKd (converted)). Moreover, the Selectivity ratio in experiment [2] stood at 10.5. For the same compound, the inhibition result in experiment [9] and in experiment [10] was “Active” each time.

Turning to `CC(C)(C)NCC(O)COc1ccccc1-c1ccccc1` (centres undefined) [BERLAFENONE], the Kd in experiment [3] (read-out: Kd) came to 3.5e-05 µM.
